Measured values published in US7795446B2, “Benzimidazole derivatives useful as selective androgen receptor modulators (SARMS)” (priority 2004, dated 2010).

System: ventral prostate and seminal vesicle weights, testosterone propionate-treated castrated male Sprague Dawley rats
Test: Ventral Prostate and Seminal Vesicle Weight In Vivo Assay
Details: percent inhibition of testosterone-enhanced prostate weight; immature castrated male rats; test compound usually orally 40 mg/kg (2 mg/day) once daily for five days plus testosterone propionate 2 mg/kg s.c.
Description: Ventral Prostate and Seminal Vesicle Weight In Vivo Assay
Immature (approximately 50 g) castrated male Sprague Dawley rats (Charles River) were treated once daily for five days with test compound (usually given orally at 40 mg/kg in a volume of 0.3 mL, in 30% cyclodextrin or 0.5% methylcellulose vehicle) and with testosterone propionate (given subcutaneously by injection at the nape of the neck at 2 mg/kg, in a volume of 0.1 mL in sesame oil). On the sixth day, the rats were euthanized by asphyxiation in carbon dioxide. Ventral prosatates and seminal vesicles were removed and their wet weights determined. Test compound activity was determined as the percent inhibition of testosterone-enhanced tissue weights, with a vehicle-treated control group set to zero percent and a testosterone alone-treated control group set to 100%.
Representative compounds of the present invention were tested according to the procedure described, with results as listed in Table 7 below. A test compound is listed as “active” if the non weight adjusted prostate weight was ≦40 mg or the % Inhibition prostate weight, body weight adjusted was ≧40%@ 2 mg/day dosage. ID50's, if determined, of ≦15 mg/day also indicated an “active” compound.

Row | Molecule | Activity
1 | 3,3,3-Trifluoro-2-methoxy-2-phenyl-propionic acid 1-(5,6-dichloro-1H-benzamidazol-2-yl)-2,2,2-trifluoro-1-methyl-ethyl ester [Compound 107] | active
2 | CSCC(C)(O)c1nc2cc(Cl)c(Cl)cc2n1C (stereo not shown) [Compound 12] | active
3 | Cn1c(C(C)(O)CSCc2ccccc2)nc2cc(Cl)c(Cl)cc21 (stereo not shown) [Compound 23] | active
4 | O=[N+]([O-])c1cc2nc(C(O)C(F)(F)F)[nH]c2cc1[N+](=O)[O-] (stereo not shown) [Compound 155, 1-(5,6-Dinitro-1H-benzoimidazol-2-yl-)2,2,2-trifluoro-ethanol] | inactive
